Data set [1] deals with nausea and vomiting associated with administration of the test drug. Nature of the data set: Working Example 2: drugs to treat nausea and vomiting associated with the test drug. The conditions noted are these: for efficacy against nausea and vomiting associated with the test drug (summary): summary of Table 18.
Description: The administration period and efficacy of various drugs to treat nausea and vomiting associated with administration of the test drug were studied.
For data set [2] the following is noted: in vivo.
Protocol: The ratio of the urinary calcium value/urinary creatine value was compared before beginning administration and in the weeks of observation. The urinary calcium was measured at the start, after 12 weeks, after 24 weeks, after 48 weeks, and after 72 weeks.
Data set [3] is described as follows: Working Example 1: serum calcium concentration / hypercalcemia. Type of data set: in vivo, human. On the procedure:
Both the 5 and 100 unit groups were administered two tablets of a calcium agent (containing 500 mg of precipitated calcium carbonate [200 mg as calcium] per tablet) once a day.

For data set [4] the following is noted: in vivo. This is another data set of the same source.
Protocol: The serum calcium was measured at the start, after 12 weeks, after 24 weeks, after 48 weeks, and after 72 weeks. Serum calcium standard value: 8.4 to 10.4 mg/dL. The standard concomitant drug (610 mg of calcium, 400 IU of vitamin D3, and 30 mg of magnesium) was taken once a day after dinner from the time of consent to the end of the trial.
The subject of data set [5] is osteoporosis patients having normal renal function, mild or moderate renal dysfunction. Conditions: in vivo.
For data set [6] the following is noted: 20 μg/day; blood samples 4 to 6 hours after administration; Non-patent Reference 1; cited from earlier work.
For data set [7] the following is noted: conventional daily administration; moderate renal dysfunction; Non-patent Reference 32; cited from earlier work.

Structures can show the parent of a compound that is named as a salt.

Turning to `CCOc1cc(N)c(Cl)cc1C(=O)NCC1CN(Cc2ccc(F)cc2)CCO1` (stereo not shown) [Gasmotin, mosapride citrate], the “efficacy against nausea and vomiting associated with the test drug (summary)” value (from here on “efficacy”) in data set [1] is reported as “effective”.
As to `NC(N)=Nc1nc(CSCCC(N)=NS(N)(=O)=O)cs1` [Gaster D, famotidine], the Effective or ineffective entry in data set [1] (Event: Nausea, before or after test drug: Unknown) was “Effective”. The “efficacy” value in data set [1] is given as “effective”.
As to `O=c1[nH]c2ccccc2n1CCCN1CCC(n2c(=O)[nH]c3cc(Cl)ccc32)CC1` [Nauzelin, domperidone], the Effective or ineffective entry is recorded as “Effective” in data set [1] (Event: Nausea, given Before test drug, taken after breakfast, lunch, and dinner); “Effective” in data set [1] (Event: Vomiting, given Before test drug, taken after breakfast, lunch, and dinner). Also, in data set [1], the “efficacy” value is recorded as “effective”.
Consider `CN1CCN(CCCN2c3ccccc3Sc3ccc(Cl)cc32)CC1.O=C(O)/C=C\C(=O)O.O=C(O)/C=C\C(=O)O` [Novamine], for which the Effective or ineffective result in data set [1] (Event: Nausea, given Before test drug) is “Ineffective”.
Consider `CCN(CC)CCNC(=O)c1cc(Cl)c(N)cc1OC` [Primperan, metoclopramide], for which, in data set [1] (Event: Nausea, given Before test drug, listed as Primperan tablet), the Effective or ineffective result is given as “Ineffective”. In addition, the “efficacy” value in data set [1] is recorded as “effective”.
In the case of `Cc1c(OCC(F)(F)F)ccnc1C[S+]([O-])c1nc2ccccc2[nH]1` (stereo not shown) [Takepron OD, lansoprazole], in data set [1], the “efficacy” value is listed as “effective”.
For `CC[C@H](C)[C@H](NC(=O)[C@H](CCC(=O)O)NC(=O)[C@H](CO)NC(=O)[C@@H](NC(=O)[C@@H](N)CO)C(C)C)C(=O)N[C@@H](CCC(N)=O)C(=O)N[C@@H](CC(C)C)C(=O)N[C@@H](CCSC)C(=O)N[C@@H](Cc1cnc[nH]1)C(=O)N[C@@H](CC(N)=O)C(=O)N[C@@H](CC(C)C)C(=O)NCC(=O)N[C@@H](CCCCN)C(=O)N[C@@H](Cc1cnc[nH]1)C(=O)N[C@@H](CC(C)C)C(=O)N[C@@H](CC(N)=O)C(=O)N[C@@H](CO)C(=O)N[C@@H](CCSC)C(=O)N[C@@H](CCC(=O)O)C(=O)N[C@@H](CCCN=C(N)N)C(=O)N[C@H](C(=O)N[C@@H](CCC(=O)O)C(=O)N[C@@H](Cc1c[nH]c2ccccc12)C(=O)N[C@@H](CC(C)C)C(=O)N[C@@H](CCCN=C(N)N)C(=O)N[C@@H](CCCCN)C(=O)N[C@@H](CCCCN)C(=O)N[C@@H](CC(C)C)C(=O)N[C@@H](CCC(N)=O)C(=O)N[C@@H](CC(=O)O)C(=O)N[C@H](C(=O)N[C@@H](Cc1cnc[nH]1)C(=O)N[C@@H](CC(N)=O)C(=O)N[C@@H](Cc1ccccc1)C(=O)O)C(C)C)C(C)C` [teriparatide acetate], in data set [2], the “median percentage change in the urinary calcium value” was −14.7%. Besides, the “changes in the serum calcium concentration” value in data set [3] (5 or 100 units once a week, high-risk and low-risk patients) is on record as “no tendency for the serum calcium to rise was seen”. Besides, in data set [3] (once a week, either dose (5 or 100 units), during the administration period), the hypercalcemia result is given as “did not cause hypercalcemia”. In data set [4], the “corrected serum calcium value after administration, maximum” value is 11.6 mg/dL; the “corrected serum calcium value after administration, minimum” value was determined as 8.5 mg/dL; the “corrected serum calcium value, range of the average” value was 9.3 to 9.6 mg/dL; the “corrected serum calcium, test drug groups versus control group” value is given as “No significant differences could be found”. Besides, in data set [4], the “manifestation of hypercalcemia or hypercalciuria” value is listed as “No manifestation of hypercalcemia or hypercalciuria was found”. In data set [5], the “incidence of side effects relative to the control” value is listed as “about twice that of the control”.
“PTH: parathyroid hormone preparation given daily (20 μg/day) in cited trials, conventional daily administration”: in data set [6], the patients with hypercalcemia is listed as 11% and the “patients with persistent hypercalcemia” value is 3%. Moreover, the “osteoporosis patients with serum calcium exceeding 11.0 mg/mL after administration” value in data set [7] is 11.76%.

The record behind these values is patent publication US20140357560A1, “PTH-CONTAINING THERAPEUTIC/PROPHYLACTIC AGENT FOR OSTEOPOROSIS, CHARACTERIZED IN THAT PTH IS ADMINISTERED ONCE A WEEK IN A UNIT DOSE OF 100 TO 200 UNITS” (ASAHI KASEI PHARMA CORPORATION, priority 2009, published 2014).
